ChEMBL document CHEMBL1938230, “6-Position optimization of tricyclic 4-quinolone-based inhibitors of glycogen synthase kinase-3β: discovery of nitrile derivatives with picomolar potency” (Bioorg Med Chem Lett, 2012)

Assays:
[1] = biological target: Phosphatidylinositol 4,5-bisphosphate 3-kinase catalytic subunit beta isoform (Homo sapiens) (UniProt P42338); assay: Inhibition of human PIK3CB in HL-60 cells lysate assessed as reduction of labeling of acyl-phosphate ATP probe at 100 nM; format: cell-free
Chain of Phosphatidylinositol 4,5-bisphosphate 3-kinase catalytic subunit beta isoform (Homo sapiens) (P42338 whole entry, looked up, canonical isoform): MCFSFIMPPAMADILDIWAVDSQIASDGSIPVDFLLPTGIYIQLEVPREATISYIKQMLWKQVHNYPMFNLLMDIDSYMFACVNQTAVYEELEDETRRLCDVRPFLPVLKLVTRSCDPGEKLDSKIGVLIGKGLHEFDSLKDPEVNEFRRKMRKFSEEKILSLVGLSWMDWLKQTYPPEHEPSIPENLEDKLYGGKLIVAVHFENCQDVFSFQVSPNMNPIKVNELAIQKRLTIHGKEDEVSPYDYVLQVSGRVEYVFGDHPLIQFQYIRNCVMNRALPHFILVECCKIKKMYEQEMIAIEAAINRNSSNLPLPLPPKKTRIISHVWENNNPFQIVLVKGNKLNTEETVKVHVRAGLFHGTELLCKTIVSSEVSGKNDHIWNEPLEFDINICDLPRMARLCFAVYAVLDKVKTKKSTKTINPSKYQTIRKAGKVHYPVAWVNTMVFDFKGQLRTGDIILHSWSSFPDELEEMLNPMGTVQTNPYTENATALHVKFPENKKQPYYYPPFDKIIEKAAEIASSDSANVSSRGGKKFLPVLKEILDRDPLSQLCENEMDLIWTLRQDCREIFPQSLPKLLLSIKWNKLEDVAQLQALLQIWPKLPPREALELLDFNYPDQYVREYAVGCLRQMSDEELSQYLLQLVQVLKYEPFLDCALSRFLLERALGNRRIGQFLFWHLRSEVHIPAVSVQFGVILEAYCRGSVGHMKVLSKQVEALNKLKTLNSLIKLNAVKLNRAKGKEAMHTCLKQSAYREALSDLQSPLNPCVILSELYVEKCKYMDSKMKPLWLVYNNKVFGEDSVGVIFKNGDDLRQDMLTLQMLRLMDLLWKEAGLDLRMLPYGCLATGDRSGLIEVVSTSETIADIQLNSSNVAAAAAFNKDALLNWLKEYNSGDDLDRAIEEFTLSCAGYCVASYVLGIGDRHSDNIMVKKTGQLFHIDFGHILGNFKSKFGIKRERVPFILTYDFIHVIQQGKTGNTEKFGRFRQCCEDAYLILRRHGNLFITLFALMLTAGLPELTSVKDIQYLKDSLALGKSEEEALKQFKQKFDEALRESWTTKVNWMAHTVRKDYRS

[2] = tested on: HL-60; assay: Inhibition of human Wnk1/Wnk2/Wnk3 in HL-60 cells lysate assessed as reduction of labeling of acyl-phosphate ATP probe at 100 nM
[3] = tested on: HL-60; assay: Inhibition of human Wnk1/Wnk2/Wnk4 in HL-60 cells lysate assessed as reduction of labeling of acyl-phosphate ATP probe at 100 nM
[4] = biological target: Serine/threonine-protein kinase 10 (Homo sapiens) (UniProt O94804); assay: Inhibition of human LOK in HL-60 cells lysate assessed as reduction of labeling of acyl-phosphate ATP probe at 100 nM; format: cell-free
Chain of Serine/threonine-protein kinase 10 (Homo sapiens) (O94804 whole entry, looked up): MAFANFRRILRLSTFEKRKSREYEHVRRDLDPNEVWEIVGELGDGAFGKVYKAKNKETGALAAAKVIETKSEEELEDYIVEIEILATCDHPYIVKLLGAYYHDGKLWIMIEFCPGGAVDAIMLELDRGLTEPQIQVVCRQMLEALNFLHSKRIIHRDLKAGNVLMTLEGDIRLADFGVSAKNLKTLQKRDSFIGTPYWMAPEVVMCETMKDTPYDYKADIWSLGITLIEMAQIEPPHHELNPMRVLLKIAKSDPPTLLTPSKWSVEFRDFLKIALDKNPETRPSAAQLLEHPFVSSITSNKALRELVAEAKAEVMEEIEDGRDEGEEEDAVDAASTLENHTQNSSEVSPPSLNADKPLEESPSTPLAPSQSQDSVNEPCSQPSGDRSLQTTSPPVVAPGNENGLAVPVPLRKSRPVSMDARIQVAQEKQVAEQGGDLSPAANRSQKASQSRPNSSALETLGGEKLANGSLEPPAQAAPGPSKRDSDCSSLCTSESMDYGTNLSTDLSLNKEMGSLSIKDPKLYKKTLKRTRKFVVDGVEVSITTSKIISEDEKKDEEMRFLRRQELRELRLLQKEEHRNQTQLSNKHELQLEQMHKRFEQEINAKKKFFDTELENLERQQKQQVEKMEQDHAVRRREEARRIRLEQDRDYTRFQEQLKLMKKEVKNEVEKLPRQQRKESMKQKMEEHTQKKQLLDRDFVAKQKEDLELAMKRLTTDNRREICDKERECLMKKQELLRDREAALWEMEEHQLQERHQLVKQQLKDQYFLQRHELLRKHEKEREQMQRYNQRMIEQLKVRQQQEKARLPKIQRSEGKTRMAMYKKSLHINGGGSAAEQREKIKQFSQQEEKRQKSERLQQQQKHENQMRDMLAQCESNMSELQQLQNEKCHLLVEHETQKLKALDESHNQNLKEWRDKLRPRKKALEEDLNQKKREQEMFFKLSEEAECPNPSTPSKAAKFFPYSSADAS

[5] = biological target: T1, Dual specificity mitogen-activated protein kinase kinase 7 (Homo sapiens) (UniProt O14733); assay: Inhibition of human MAP2K7 in HL-60 cells lysate assessed as reduction of labeling of acyl-phosphate ATP probe at 100 nM; format: cell-free
T1 sequence (whole entry): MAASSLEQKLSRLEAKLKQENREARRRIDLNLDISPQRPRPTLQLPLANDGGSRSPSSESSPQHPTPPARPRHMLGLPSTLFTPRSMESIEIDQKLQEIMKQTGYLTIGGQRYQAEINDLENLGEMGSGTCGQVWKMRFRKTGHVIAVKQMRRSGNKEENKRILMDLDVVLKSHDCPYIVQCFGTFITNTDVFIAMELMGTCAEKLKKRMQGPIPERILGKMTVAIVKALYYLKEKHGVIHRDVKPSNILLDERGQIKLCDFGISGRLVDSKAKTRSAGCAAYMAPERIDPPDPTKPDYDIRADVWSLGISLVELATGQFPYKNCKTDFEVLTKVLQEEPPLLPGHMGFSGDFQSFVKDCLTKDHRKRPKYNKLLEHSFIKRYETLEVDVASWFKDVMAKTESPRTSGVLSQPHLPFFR

[6] = tested on: HL-60; assay: Inhibition of human MAP3K5/MAP3K6/MAP3K7 in HL-60 cells lysate assessed as reduction of labeling of acyl-phosphate ATP probe at 100 nM
[7] = biological target: Serine/threonine-protein kinase 26 (Homo sapiens) (UniProt Q9P289); assay: Inhibition of human MST4 in HL-60 cells lysate assessed as reduction of labeling of acyl-phosphate ATP probe at 100 nM; format: cell-free
Chain of Serine/threonine-protein kinase 26 (Homo sapiens) (Q9P289 2-416 limits assumed): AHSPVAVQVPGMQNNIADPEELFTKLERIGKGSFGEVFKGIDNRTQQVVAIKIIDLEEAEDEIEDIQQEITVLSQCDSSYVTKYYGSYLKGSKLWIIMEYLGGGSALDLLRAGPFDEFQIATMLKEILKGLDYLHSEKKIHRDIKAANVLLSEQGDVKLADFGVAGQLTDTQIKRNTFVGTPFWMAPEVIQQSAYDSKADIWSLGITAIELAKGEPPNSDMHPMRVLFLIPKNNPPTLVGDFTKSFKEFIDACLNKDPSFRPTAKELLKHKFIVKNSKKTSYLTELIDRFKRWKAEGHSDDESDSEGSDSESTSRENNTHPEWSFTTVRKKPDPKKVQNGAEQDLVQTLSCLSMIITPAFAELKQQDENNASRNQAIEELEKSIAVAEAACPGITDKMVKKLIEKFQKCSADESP

[8] = biological target: Tyrosine-protein kinase ABL (Homo sapiens) (UniProt P00519+P42684); assay: Inhibition of human ABL/ARG in HL-60 cells lysate assessed as reduction of labeling of acyl-phosphate ATP probe at 100 nM; format: cell-free
[9] = biological target: Tyrosine-protein kinase Lyn (Homo sapiens) (UniProt P07948); assay: Inhibition of human LYN in HL-60 cells lysate assessed as reduction of labeling of acyl-phosphate ATP probe at 100 nM; format: cell-free
Chain of Tyrosine-protein kinase Lyn (Homo sapiens) (P07948 2-512 limits assumed): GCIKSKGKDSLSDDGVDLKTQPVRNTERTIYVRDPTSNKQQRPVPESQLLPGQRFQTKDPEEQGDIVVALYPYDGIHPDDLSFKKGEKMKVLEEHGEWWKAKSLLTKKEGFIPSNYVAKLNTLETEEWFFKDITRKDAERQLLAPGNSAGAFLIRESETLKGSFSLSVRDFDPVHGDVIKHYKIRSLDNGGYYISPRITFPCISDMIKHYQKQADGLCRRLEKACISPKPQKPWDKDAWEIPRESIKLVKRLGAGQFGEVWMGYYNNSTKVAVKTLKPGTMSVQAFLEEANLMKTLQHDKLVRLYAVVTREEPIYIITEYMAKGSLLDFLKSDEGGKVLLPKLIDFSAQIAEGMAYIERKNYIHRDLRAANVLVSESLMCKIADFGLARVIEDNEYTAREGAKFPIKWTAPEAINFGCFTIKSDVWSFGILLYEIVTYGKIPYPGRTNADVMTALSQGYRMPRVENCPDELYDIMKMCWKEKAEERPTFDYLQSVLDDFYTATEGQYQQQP

[10] = biological target: Protein-tyrosine kinase 2-beta (Homo sapiens) (UniProt Q14289); assay: Inhibition of human PYK2 in HL-60 cells lysate assessed as reduction of labeling of acyl-phosphate ATP probe at 100 nM; format: cell-free
Chain of Protein-tyrosine kinase 2-beta (Homo sapiens) (Q14289 whole entry, looked up): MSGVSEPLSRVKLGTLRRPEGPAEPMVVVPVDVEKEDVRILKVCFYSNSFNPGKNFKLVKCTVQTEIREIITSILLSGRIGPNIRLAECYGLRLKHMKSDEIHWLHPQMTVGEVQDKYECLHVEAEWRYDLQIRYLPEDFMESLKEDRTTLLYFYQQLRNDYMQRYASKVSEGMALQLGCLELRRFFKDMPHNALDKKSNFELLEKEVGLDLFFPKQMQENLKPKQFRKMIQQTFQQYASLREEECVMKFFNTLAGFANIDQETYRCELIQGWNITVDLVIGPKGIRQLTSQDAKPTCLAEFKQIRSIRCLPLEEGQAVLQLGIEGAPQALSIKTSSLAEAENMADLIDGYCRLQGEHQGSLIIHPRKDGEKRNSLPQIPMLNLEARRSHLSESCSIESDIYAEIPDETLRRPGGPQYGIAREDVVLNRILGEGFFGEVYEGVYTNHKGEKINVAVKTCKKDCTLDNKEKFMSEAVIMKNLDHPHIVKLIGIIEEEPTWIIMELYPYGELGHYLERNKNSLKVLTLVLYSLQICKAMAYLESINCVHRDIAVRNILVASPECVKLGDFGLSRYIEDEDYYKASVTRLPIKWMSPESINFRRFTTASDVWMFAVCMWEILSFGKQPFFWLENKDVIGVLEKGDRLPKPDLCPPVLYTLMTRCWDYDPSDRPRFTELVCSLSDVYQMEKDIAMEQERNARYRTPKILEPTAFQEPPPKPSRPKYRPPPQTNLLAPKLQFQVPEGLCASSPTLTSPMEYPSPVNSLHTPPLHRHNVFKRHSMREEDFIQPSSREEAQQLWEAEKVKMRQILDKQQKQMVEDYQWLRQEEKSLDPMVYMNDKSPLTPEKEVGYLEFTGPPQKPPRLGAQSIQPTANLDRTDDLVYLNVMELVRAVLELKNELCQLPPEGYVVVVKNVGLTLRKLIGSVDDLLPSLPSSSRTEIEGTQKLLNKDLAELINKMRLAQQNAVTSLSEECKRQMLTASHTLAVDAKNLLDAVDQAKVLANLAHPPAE

[11] = biological target: T2, Serine/threonine-protein kinase A-Raf (Homo sapiens) (UniProt P10398); assay: Inhibition of human ARAF in HL-60 cells lysate assessed as reduction of labeling of acyl-phosphate ATP probe at 100 nM; format: cell-free
T2 sequence (whole entry): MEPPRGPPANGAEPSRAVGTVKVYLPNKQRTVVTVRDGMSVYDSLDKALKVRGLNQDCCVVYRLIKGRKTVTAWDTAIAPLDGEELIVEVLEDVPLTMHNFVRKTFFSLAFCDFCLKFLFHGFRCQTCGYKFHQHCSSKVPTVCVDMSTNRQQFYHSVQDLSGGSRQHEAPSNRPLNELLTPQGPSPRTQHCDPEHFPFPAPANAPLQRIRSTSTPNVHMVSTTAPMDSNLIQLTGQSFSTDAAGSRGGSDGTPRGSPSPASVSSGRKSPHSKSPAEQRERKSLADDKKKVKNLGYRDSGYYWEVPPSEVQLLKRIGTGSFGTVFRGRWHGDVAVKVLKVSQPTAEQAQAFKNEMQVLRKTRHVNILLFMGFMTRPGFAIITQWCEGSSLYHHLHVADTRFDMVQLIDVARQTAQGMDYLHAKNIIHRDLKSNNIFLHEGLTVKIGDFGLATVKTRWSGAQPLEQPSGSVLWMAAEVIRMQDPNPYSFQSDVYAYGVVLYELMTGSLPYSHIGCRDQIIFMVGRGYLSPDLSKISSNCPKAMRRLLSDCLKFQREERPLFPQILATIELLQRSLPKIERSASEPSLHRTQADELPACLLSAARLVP

[12] = biological target: T3, Interleukin-1 receptor-associated kinase 3 (Homo sapiens) (UniProt Q9Y616); assay: Inhibition of human IRAK3 in HL-60 cells lysate assessed as reduction of labeling of acyl-phosphate ATP probe at 100 nM; format: cell-free
T3 sequence (whole entry): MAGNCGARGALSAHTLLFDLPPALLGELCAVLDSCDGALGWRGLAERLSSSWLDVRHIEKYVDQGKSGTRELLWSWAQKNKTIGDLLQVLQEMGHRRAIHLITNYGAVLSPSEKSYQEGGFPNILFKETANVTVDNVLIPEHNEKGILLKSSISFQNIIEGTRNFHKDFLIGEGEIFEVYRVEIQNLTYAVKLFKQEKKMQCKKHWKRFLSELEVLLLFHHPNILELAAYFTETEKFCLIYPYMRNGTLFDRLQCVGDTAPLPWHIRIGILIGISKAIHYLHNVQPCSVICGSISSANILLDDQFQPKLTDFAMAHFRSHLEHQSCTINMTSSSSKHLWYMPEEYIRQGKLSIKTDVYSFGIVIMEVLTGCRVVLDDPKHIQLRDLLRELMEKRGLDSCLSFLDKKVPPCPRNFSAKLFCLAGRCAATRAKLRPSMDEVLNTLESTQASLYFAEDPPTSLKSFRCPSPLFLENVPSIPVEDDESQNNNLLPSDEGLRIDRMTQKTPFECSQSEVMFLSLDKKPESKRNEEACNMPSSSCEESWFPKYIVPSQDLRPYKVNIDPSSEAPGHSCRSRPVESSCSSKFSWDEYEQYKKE

C[C@H]1COc2c(NCCCn3cccn3)c(F)c(N)c3c(=O)c(C#N)cn1c23
< 35%: inhibition [1] | inhibition at 0.1 µM [2] | inhibition at 0.1 µM [3] | inhibition [4] | inhibition [5] | inhibition at 0.1 µM [6] | inhibition [7] | inhibition [8] | inhibition [9] | inhibition [10] | inhibition [11] | inhibition [12]

C[C@H]1COc2c(NCCCc3ccccn3)c(F)c(N)c3c(=O)c(C(=O)O)cn1c23
< 35%: inhibition [1] | inhibition at 0.1 µM [2] | inhibition at 0.1 µM [3] | inhibition [4] | inhibition [5] | inhibition at 0.1 µM [6] | inhibition [7] | inhibition [8] | inhibition [9] | inhibition [10] | inhibition [11] | inhibition [12]

C[C@H]1COc2c(NCCCn3cccn3)c(F)c(N)c3c(=O)c(C(=O)O)cn1c23
< 35%: inhibition [1] | inhibition at 0.1 µM [2] | inhibition at 0.1 µM [3] | inhibition [4] | inhibition [5] | inhibition at 0.1 µM [6] | inhibition [7] | inhibition [8] | inhibition [9] | inhibition [10] | inhibition [11] | inhibition [12]

C[C@H]1COc2c(NCCCc3ccccn3)c(F)c(N)c3c(=O)c(C#N)cn1c23
< 35%: inhibition [1] | inhibition at 0.1 µM [2] | inhibition at 0.1 µM [3] | inhibition [4] | inhibition [5] | inhibition at 0.1 µM [6] | inhibition [7] | inhibition [8] | inhibition [9] | inhibition [10] | inhibition [11] | inhibition [12]
